Data as given in ChEMBL document CHEMBL4742385 (2019).
Several values for one entry are separate records, joined by “and”; a condition that tells them apart may be missing. Equal entries are not always repeated.

What was measured:
[1] = biological target: CDK8/Cyclin C (Homo sapiens) (UniProt P49336+P24863); test: Inhibition of human CDK8/Cyc C expressed in Sf21 cells at 1 uM measured after 1 hr by fluorescence plate reader relative to control
RPMI-8226 = test: Antiproliferative activity against human RPMI-8226 assessed as inhibition of cell growth at 1 uM after 8 days measured after Celltiter-Glo assay relative to control; assay type: functional; settings: time 8 day; for inhibition at 1 µM: Homo sapiens, RPMI-8226, 192 h
[2] = biological target: Cyclin-C/Cyclin-dependent kinase 19 (Homo sapiens) (UniProt Q9BWU1+P24863); test: Inhibition of humanGST-tagged CDK19/Cyc C expressed in Sf21 cells at 1 uM measured after 1 hr by fluorescence plate reader relative to control

inhibition [1] | inhibition [2] | SMILES | inhibition at 1 µM (RPMI-8226) [%] | inhibition (INH) (RPMI-8226) [%]
103% | 98% | O=C(/C=C/c1cnccc1-c1cnn(C2CC2)c1)Nc1ccc2c(c1)CCN(CC(F)(F)F)C2 | 49 | 
102% | 100% | Cn1cc(-c2ccncc2/C=C/C(=O)Nc2ccc(N3CCOCC3)c(Cl)c2)cn1 | 60 | 
90% | 85% | CCn1cc(-c2ccncc2CCC(=O)Nc2ccc(CN3CCOCC3)cc2)cn1 | 62 | 
101% | 100% | COC1CN(Cc2ccc(NC(=O)/C=C/c3cncc(F)c3-c3cnn(C4CC4)c3)cc2)C1 | 63 | 
98% | 99% | Cn1cc(-c2c(F)cncc2/C=C/C(=O)Nc2ccc(CN3CCOCC3)cc2F)cn1 | 53 | 
105% | 94% | Cn1cc(-c2ccncc2/C=C/C(=O)Nc2ccc3c(c2)CN(CC(F)F)C3)cn1 | 63 | 
 |  | CS(=O)(=O)O.O=C(/C=C/c1cnccc1-c1cnn(C2CC2)c1)Nc1ccc(CN2CC(F)(F)C2)cc1 |  | 70
95% | 96% | Cn1cc(-c2ccncc2/C=C/C(=O)Nc2ccc(CNC3CC3)cc2)cn1 | 56 | 
 |  | O=C(/C=C/c1cnccc1-c1cnn(C2CC2)c1)Nc1ccc(CN2CC(F)(F)C2)cc1.O=S(=O)(O)O |  | 70
98% | 102% | O=C(/C=C/c1cnccc1-c1cnn(C2CC2)c1)Nc1ccc2c(c1)CN(CC(F)(F)F)CC2 | 63 | 
100% | 97% | Cc1ccc(NC(=O)/C=C/c2cnccc2-c2cn[nH]c2)c(F)c1 | 59 | 
99% | 101% | O=C(/C=C/c1cnccc1-c1ccc2[nH]cnc2c1)Nc1ccc(CN2CCOCC2)cc1 | 66 | 
96% | 97% | Cn1cc(-c2ccncc2/C=C/C(=O)Nc2ccc(CNC3CC(F)(F)C3)cc2)cn1 | 63 | 
103% | 98% | O=C(/C=C/c1cncc(F)c1-c1cnn(C2CC2)c1)Nc1ccc2c(c1)OCCO2 | 65 | 
103% | 97% | COCCn1cnc2ccc(-c3ccncc3/C=C/C(=O)Nc3ccc(CN4CCOCC4)cc3)cc21 | 62 | 
102% | 99% | CC(C)(O)Cc1ccc(NC(=O)/C=C/c2cncc(F)c2-c2cnn(C3CC3)c2)c(F)c1 | 60 | 
94% | 90% | Cn1cc(-c2ccncc2/C=C/C(=O)Nc2ccc3ncsc3c2)cn1 | 53 | 
102% | 98% | Cn1cc(-c2ccncc2/C=C/C(=O)Nc2ccc(Cn3ccnc3)cc2)cn1 | 64 | 
99% | 99% | Cn1cc(-c2ccncc2/C=C/C(=O)Nc2ccc(CN3CC(F)(F)C3)cc2)cn1 | 48 | 
100% | 98% | CN1CCc2ccc(NC(=O)/C=C/c3cnccc3-c3cnn(C)c3)cc2C1 | 52 | 
93% | 96% | COc1ccc(-c2ccncc2/C=C/C(=O)Nc2ccc(CN3CCOCC3)cc2)s1 | 58 | 

inhibition [1] | inhibition [2] | SMILES | inhibition at 1 µM (RPMI-8226) [%] | inhibition (INH) (RPMI-8226) [%]
98% | 101% | Cn1cc(-c2ccncc2/C=C/C(=O)Nc2ccc3c(c2)CCN(CC(F)(F)F)C3)cn1 | 65 | 
94% | 97% | O=C(/C=C/c1cnccc1-c1cnn(CC2CC2)c1)Nc1ccc(CCN2CCOCC2)cc1 | 58 | 
99% | 100% | Cn1cc(-c2ccncc2/C=C/C(=O)Nc2ccc(CN3CCC(F)(F)C3)cc2)cn1 | 62 | 
100% | 99% | O=C(/C=C/c1cnccc1-c1cn[nH]c1)Nc1ccc(CN2CCOCC2)cc1 | 61 | 
102% | 95% | CC(C)(F)Cc1ccc(NC(=O)/C=C/c2cnccc2-c2cnn(C3CC3)c2)cc1 | 61 | 
100% | 95% | CC1COCCN1Cc1ccc(NC(=O)/C=C/c2cnccc2-c2cnn(C)c2)cc1 (configuration not stated) | 55 | 
100% | 100% | Cn1cc(-c2c(F)cncc2/C=C/C(=O)Nc2ccc(CN3CCOCC3)cc2)cn1 | 67 | 
95% | 89% | O=C(/C=C/c1cnccc1-c1cnn(C2CC2)c1)Nc1ccc(C2CC2)cc1 | 53 | 
106% | 104% | Cn1cc(-c2c(F)cncc2/C=C/C(=O)Nc2ccc3c(c2)CN(CC(F)(F)F)C3)cn1 | 56 | 
94% | 94% | Cn1cc(-c2ccncc2/C=C/C(=O)Nc2ccc3ccncc3c2)cn1 | 55 | 
 |  | O=C(/C=C/c1cnccc1-c1cnn(C2CC2)c1)Nc1ccc(CN2CC(F)(F)C2)cc1.O=C(O)/C=C/C(=O)O |  | 70
105% | 99% | Cn1cc(-c2ccncc2/C=C/C(=O)Nc2ccc(N3CC(F)(F)C3)cc2)cn1 | 50 | 
98% | 99% | O=C(/C=C/c1cnccc1-c1cnn(CC2CC2)c1)Nc1ccc(CN2CCOCC2)cc1 | 55 | 
98% | 93% | Cn1cc(-c2ccncc2/C=C/C(=O)Nc2ccc3cc[nH]c3c2)cn1 | 54 | 
101% | 97% | C[C@@H]1CN(Cc2ccc(NC(=O)/C=C/c3cnccc3-c3cnn(C)c3)cc2)C[C@H](C)O1 | 58 | 
96% | 97% | Cn1cc(-c2ccncc2/C=C/C(=O)Nc2ccc(CN3CC4CCC(C3)O4)cc2)cn1 | 61 | 
99% | 101% | Cn1cc(-c2ccncc2/C=C/C(=O)Nc2ccc(CC(C)(C)O)cc2)cn1 | 62 | 
92% | 97% | Cn1cc(-c2ccc(NC(=O)/C=C/c3cnccc3-c3cnn(C4CC4)c3)cc2)cn1 | 58 | 
100% | 97% | Cn1cc(-c2ccncc2/C=C/C(=O)Nc2ccc3c(c2)OCCO3)cn1 | 59 | 
84% | 78% | Cn1cc(-c2ccncc2/C=C/C(=O)Nc2cccc(-c3cccnc3)c2)cn1 | 58 | 
107% | 99% | O=C(/C=C/c1cnccc1-c1cnn(C2CC2)c1)Nc1ccc(CN2CC(F)C2)cc1 | 58 | 

inhibition [1] | inhibition [2] | SMILES | inhibition at 1 µM (RPMI-8226) [%] | inhibition (INH) (RPMI-8226) [%]
100% | 94% | Cn1cc(-c2ccncc2/C=C/C(=O)Nc2ccc3c(c2)OCC3)cn1 | 55 | 
94% | 91% | Cn1cc(-c2ccncc2/C=C/C(=O)Nc2cc(F)c(CN3CCOCC3)cc2F)cn1 | 66 | 
101% | 94% | COC(C)(C)Cc1ccc(NC(=O)/C=C/c2cnccc2-c2cnn(C3CC3)c2)cc1 | 67 | 
92% | 87% | Cn1cc(-c2ccncc2/C=C/C(=O)Nc2ccc3c(c2)CCC3=O)cn1 | 54 | 
96% | 92% | Cn1cc(-c2ccncc2/C=C/C(=O)Nc2ccc3c(c2)CCCC3=O)cn1 | 56 | 
92% | 95% | Cn1cc(-c2ccncc2/C=C/C(=O)Nc2ccc(CC#N)cc2)cn1 | 57 | 
103% | 101% | O=C(/C=C/c1cnccc1-c1cnn(C2CC2)c1)Nc1ccc2c(c1)CN(CC(F)(F)F)C2 | 47 | 
99% | 98% | COc1ncc(-c2ccncc2/C=C/C(=O)Nc2ccc(CN3CCOCC3)cc2)s1 | 63 | 
99% | 97% | CC1CN(Cc2ccc(NC(=O)/C=C/c3cnccc3-c3cnn(C)c3)cc2)CCO1 (configuration not stated) | 55 | 
96% | 95% | Cn1cc(-c2ccncc2/C=C/C(=O)Nc2ccc3c(c2)CCO3)cn1 | 55 | 
99% | 96% | COc1ncc(-c2ccncc2/C=C/C(=O)Nc2ccc(CN3CCOCC3)cc2F)s1 | 63 | 
96% | 94% | Cn1cc(-c2ccncc2/C=C/C(=O)Nc2ccc3c(c2)OCO3)cn1 | 53 | 
96% | 101% | CC(=O)n1cc(-c2ccncc2/C=C/C(=O)Nc2ccc(CN3CCOCC3)cc2)cn1 | 65 | 
97% | 97% | Cn1cc(-c2ccncc2/C=C/C(=O)Nc2ccc(CN3CCC4(CC3)COC4)cc2)cn1 | 60 | 
103% | 98% | Cc1noc(C)c1-c1ccc(NC(=O)/C=C/c2cnccc2-c2cnn(C3CC3)c2)c(F)c1 | 58 | 
102% | 102% | Cn1cnc2ccc(-c3ccncc3/C=C/C(=O)Nc3ccc(CN4CCOCC4)cc3)cc21 | 65 | 
102% [middle of 6 runs] | 101% (3×) and 100% (3×) | O=C(/C=C/c1cnccc1-c1cnn(C2CC2)c1)Nc1ccc(CN2CC(F)(F)C2)cc1 |  | 
 |  | O=C(/C=C/c1cnccc1-c1cnn(C2CC2)c1)Nc1ccc(CN2CC(F)(F)C2)cc1.O=P(O)(O)O.O=P(O)(O)O |  | 69
 |  | O=C(/C=C/c1cnccc1-c1cnn(C2CC2)c1)Nc1ccc(CN2CC(F)(F)C2)cc1.O=C(O)CCC(=O)O |  | 66
